From PubChem BioAssay AID248 (DTP/NCI, 2004)
Toxic doses and inconclusive results are not listed. Rule as the data show it: active = T/C of 150% or more; inactive = T/C below 125%.

Tested on: L1210 leukemia ip in BDF1 mice, survival T/C
Assay: NCI In Vivo Anticancer Drug Screen. Data for tumor model L1210 Leukemia (intraperitoneal) in B6D2F1 (BDF1) mice
Details: endpoint: mean survival time, higher = longer survival
Summary of the method: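 Transplantable tumor model; survival measured in treated vs vehicle control mice. Value = treated/control.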

[1] = dose: 100.0 mg/kg/injection, schedule: Q01DX001 (ip), vehicle: saline
[2] = dose: 200.0 mg/kg/injection, schedule: Q01DX001 (ip), vehicle: saline
[3] = dose: 400.0 mg/kg/injection, schedule: Q01DX001 (ip), vehicle: saline
[4] = dose: 100.0 mg/kg/injection, schedule: Q01DX009 (ip), vehicle: saline
[5] = dose: 50.0 mg/kg/injection, schedule: Q01DX001 (ip), vehicle: saline
[6] = dose: 100.0 mg/kg/injection, schedule: Q01DX009 (ip), vehicle: Klucel (hydroxypropylcellulose) (HPC)
[7] = dose: 200.0 mg/kg/injection, schedule: Q01DX009 (ip), vehicle: Klucel (hydroxypropylcellulose) (HPC)
[8] = dose: 100.0 mg/kg/injection, schedule: Q04DX003 (ip), vehicle: saline with Tween-80
[9] = dose: 200.0 mg/kg/injection, schedule: Q04DX003 (ip), vehicle: saline with Tween-80
[10] = dose: 400.0 mg/kg/injection, schedule: Q04DX003 (ip), vehicle: saline with Tween-80
[11] = dose: 100.0 mg/kg/injection, schedule: Q01DX009 (ip), vehicle: saline with Tween-80
[12] = dose: 200.0 mg/kg/injection, schedule: Q01DX009 (ip), vehicle: saline with Tween-80

Measured: T/C

O=C(/C=C/c1ccc(O)cc1)c1ccc(Cl)cc1
inactive: [1] 98 % of control | [2] 87 % of control | [3] 90 % of control

COC1OC(COC(C)=O)C(OC(C)=O)C(NC(=O)NCCCl)C1OC(C)=O (centres undefined)
inactive: dose: 100.0 mg/kg/injection, schedule: Q01DX001 (ip), vehicle: Klucel (hydroxypropylcellulose) (HPC) 105 % of control | dose: 200.0 mg/kg/injection, schedule: Q01DX001 (ip), vehicle: Klucel (hydroxypropylcellulose) (HPC) 102 % of control | dose: 400.0 mg/kg/injection, schedule: Q01DX001 (ip), vehicle: Klucel (hydroxypropylcellulose) (HPC) 102 % of control

C=CCNc1ncnc2c1cnn2C
inactive: dose: 50.0 mg/kg/injection, schedule: Q01DX009 (ip), vehicle: saline 118 % of control | [4] 103 % of control

CCN(CC)CCCC(C)Nc1ccnc(/C=C/c2ccc(C(F)(F)F)cc2)c1 (centres undefined)
inactive: dose: 12.5 mg/kg/injection, schedule: Q01DX001 (ip), vehicle: saline 98 % of control | dose: 20.0 mg/kg/injection, schedule: Q04DX003 (ip), vehicle: saline 95 % of control | dose: 25.0 mg/kg/injection, schedule: Q01DX001 (ip), vehicle: saline 96 % of control | dose: 40.0 mg/kg/injection, schedule: Q04DX003 (ip), vehicle: saline 95 % of control | [5] 104 % of control | dose: 80.0 mg/kg/injection, schedule: Q04DX003 (ip), vehicle: saline 93 % of control | [1] 86 % of control

CC1(C)N=C(N)N=C(N)N1c1ccc(OCCCc2ccccc2)c([N+](=O)[O-])c1
inactive: [6] 103 % of control | [7] 103 % of control

Nc1ncnc2c1ncn2C1OC(COC2C(CO)OC(OC(C(=O)O)C(O)C(OP(=O)(O)O)C(O)C(=O)O)C(O)C2O)C(O)C1O (centres undefined)
inactive: dose: 0.25 mg/kg/injection, schedule: Q04DX002 (ip), vehicle: saline + alcohol 91 % of control | dose: 0.5 mg/kg/injection, schedule: Q04DX002 (ip), vehicle: saline + alcohol 94 % of control | dose: 1.0 mg/kg/injection, schedule: Q04DX002 (ip), vehicle: saline + alcohol 98 % of control

CCOC(=O)Nc1cccc(OC(=O)NC)c1
inactive: [8] 100 % of control | [9] 107 % of control | [10] 89 % of control

Cc1cc(Cl)cc(C)c1OC(=O)Nc1ccc(F)cc1
inactive: [6] 96 % of control | [7] 95 % of control | dose: 400.0 mg/kg/injection, schedule: Q01DX009 (ip), vehicle: Klucel (hydroxypropylcellulose) (HPC) 107 % of control

CN(C)c1nc(C(=O)O)cc(=O)[nH]1
inactive: dose: 100.0 mg/kg/injection, schedule: Q01DX Z (ip), vehicle: saline 101 % of control | dose: 200.0 mg/kg/injection, schedule: Q01DX Z (ip), vehicle: saline 100 % of control

NS(=O)(=O)c1ccccc1C(=O)O
inactive: [4] 96 % of control | dose: 200.0 mg/kg/injection, schedule: Q01DX009 (ip), vehicle: saline 91 % of control

Cc1ccccc1NC(=O)c1ccccc1
inactive: [8] 100 % of control | [9] 98 % of control | [10] 98 % of control

Cc1nc2c(c(=O)[nH]1)OCN(C)C2
inactive: [5] 104 % of control | [1] 101 % of control | [2] 109 % of control | [3] 122 % of control

O=C(Nc1ccccc1)c1ccccc1
inactive: dose: 100.0 mg/kg/injection, schedule: Q04DX003 (ip), vehicle: Klucel (hydroxypropylcellulose) (HPC) 97 % of control | dose: 200.0 mg/kg/injection, schedule: Q04DX003 (ip), vehicle: Klucel (hydroxypropylcellulose) (HPC) 94 % of control | dose: 400.0 mg/kg/injection, schedule: Q04DX003 (ip), vehicle: Klucel (hydroxypropylcellulose) (HPC) 103 % of control

CC(C)CCCC(C)C1CCC2C3CC=C4CC(C5C(=O)NC(=O)NC5=O)CCC4(C)C3CCC12C (centres undefined)
inactive: dose: 12.5 mg/kg/injection, schedule: Q04DX003 (ip), vehicle: saline with Tween-80 96 % of control | dose: 25.0 mg/kg/injection, schedule: Q04DX003 (ip), vehicle: saline with Tween-80 96 % of control | dose: 50.0 mg/kg/injection, schedule: Q04DX003 (ip), vehicle: saline with Tween-80 87 % of control | [10] 88 % of control

C[N+](C)(C)CCOC(=O)Nc1ccc(C(c2ccc(NC(=O)OCC[N+](C)(C)C)cc2)c2ccc(NC(=O)OCC[N+](C)(C)C)cc2)cc1
inactive: dose: 0.25 mg/kg/injection, schedule: Q01DX009 (ip), vehicle: saline with Tween-80 98 % of control | dose: 0.5 mg/kg/injection, schedule: Q01DX009 (ip), vehicle: saline with Tween-80 100 % of control

O=C(Nc1cccc(C2=NCCCN2)c1)c1ccc(C(=O)Nc2cccc(C3=NCCCN3)c2)c([N+](=O)[O-])c1
inactive: dose: 0.05 mg/kg/injection, schedule: Q01DX015 (ip), vehicle: water 98 % of control | dose: 0.09 mg/kg/injection, schedule: Q01DX015 (ip), vehicle: water 96 % of control | dose: 0.19 mg/kg/injection, schedule: Q01DX015 (ip), vehicle: water 98 % of control | dose: 0.38 mg/kg/injection, schedule: Q01DX015 (ip), vehicle: water 101 % of control | dose: 0.5 mg/kg/injection, schedule: Q01DX015 (ip), vehicle: water 97 % of control

CCCCCCC[CH2][Sn](=[O])[CH2]CCCCCCC
inactive: dose: 3.12 mg/kg/injection, schedule: Q01DX009 (ip), vehicle: saline with Tween-80 95 % of control | dose: 6.25 mg/kg/injection, schedule: Q01DX009 (ip), vehicle: saline with Tween-80 100 % of control | dose: 100.0 mg/kg/injection, schedule: Q04DX003 (ip), vehicle: acetone 102 % of control

C/C(=C\COc1ccc2ccc(=O)oc2c1)C1=CC(=O)C(C)(C)O1
inactive: [11] 96 % of control | [8] 96 % of control | [12] 94 % of control | [9] 91 % of control | dose: 400.0 mg/kg/injection, schedule: Q01DX009 (ip), vehicle: saline with Tween-80 97 % of control | [10] 94 % of control

CC(=O)OC(OC(C)=O)c1ccccn1
inactive: dose: 75.0 mg/kg/injection, schedule: Q01DX001 (ip), vehicle: saline 94 % of control | dose: 150.0 mg/kg/injection, schedule: Q01DX001 (ip), vehicle: saline 96 % of control | dose: 300.0 mg/kg/injection, schedule: Q01DX001 (ip), vehicle: saline 93 % of control

O=C(Nc1ccc(C2=NCCN2)cc1)c1cc(Cl)c(C(=O)Nc2ccc(C3=NCCN3)cc2)cc1Cl
inactive: dose: 13.4 mg/kg/injection, schedule: Q01DX Z (ip), vehicle: carboxymethylcellulose (CMC) 104 % of control | dose: 20.0 mg/kg/injection, schedule: Q01DX Z (ip), vehicle: carboxymethylcellulose (CMC) 123 % of control | dose: 45.0 mg/kg/injection, schedule: Q01DX Z (ip), vehicle: carboxymethylcellulose (CMC) 88 % of control

Cc1cc2oc(=O)c3c(c2c(O)c1CN1CCOCC1)CCCC3
inactive: dose: 100.0 mg/kg/injection, schedule: Q01DX001 (ip), vehicle: carboxymethylcellulose (CMC) 96 % of control | dose: 400.0 mg/kg/injection, schedule: Q01DX001 (ip), vehicle: carboxymethylcellulose (CMC) 98 % of control

Cc1ccc(CNc2ccc([N+](=O)[O-])cc2)cc1
inactive: dose: 50.0 mg/kg/injection, schedule: Q01DX009 (ip), vehicle: saline with Tween-80 92 % of control | [11] 103 % of control | [8] 93 % of control | [12] 97 % of control | [9] 101 % of control | [10] 88 % of control
